Assay results reported in ChEMBL document CHEMBL1154236, “Monoterpenes from Paeonia albiflora and their inhibitory activity on nitric oxide production by lipopolysaccharide-activated microglia” (J Nat Prod, 2009).

Assays:
Conditions in all cases: N9, 48 h
N9 [1] = assay: Antiinflammatory activity against mouse N9 cells assessed as LPS-induced nitric oxide production at 1 uM after 48 hrs by Griess reaction relative to control
N9 [2] = assay: Antiinflammatory activity against mouse N9 cells assessed as LPS-induced nitric oxide production at 3 uM after 48 hrs by Griess reaction relative to control
N9 [3] = assay: Antiinflammatory activity against mouse N9 cells assessed as LPS-induced nitric oxide production at 10 uM after 48 hrs by Griess reaction relative to control
N9 [4] = assay: Antiinflammatory activity against mouse N9 cells assessed as LPS-induced nitric oxide production at 30 uM after 48 hrs by Griess reaction relative to control
N9 [5] = assay: Antiinflammatory activity against mouse N9 cells assessed as inhibition of LPS-induced nitric oxide production after 48 hrs by Griess reaction relative to control

Row | SMILES | NO production (% of LPS control) at 1 µM (N9 [1]) [%] | NO production (% of LPS control) at 3 µM (N9 [2]) [%] | NO production (% of LPS control) at 10 µM (N9 [3]) [%] | NO production (% of LPS control) at 30 µM (N9 [4]) [%] | IC50 (N9 [5]) [µM]
1 | CO[C@]12C[C@]3(C)O[C@H](O1)[C@]1(COC(=O)c4ccccc4)[C@@H]2C[C@]13O[C@@H]1O[C@H](COC(=O)c2ccccc2)[C@@H](O)[C@H](O)[C@H]1O | 91.9 | 95.5 | 70.4 | 34.9 | 22.6
2 | C[C@@]12C[C@@]3(O)O[C@@H](O1)[C@]1(COC(=O)c4ccc(O)cc4)[C@@H]3C[C@]12O[C@@H]1O[C@H](CO)[C@@H](O)[C@H](O)[C@H]1O [OXYPAEONIFLORIN] | 71.7 | 83 | 76.6 | 76.6 | > 100
3 | CO[C@H]1O[C@@]2(C)CC(=O)[C@H]3C[C@]2(O[C@@H]2O[C@H](COC(=O)c4cc(O)c(O)c(O)c4)[C@@H](O)[C@H](O)[C@H]2O)[C@]13COC(=O)c1ccccc1 [PAEONIDANIN B] | 63 | 64.1 | 52.2 | 43.5 | 13.9
4 | C[C@@]12C[C@@]3(O)O[C@@H](O1)[C@]1(COC(=O)c4ccccc4)[C@@H]3C[C@]12O[C@@H]1O[C@H](CO[C@H]2O[C@H](CO)[C@@H](O)[C@H](O)[C@H]2O)[C@@H](O)[C@H](O)[C@H]1O | 90.1 | 91.5 | 85.1 | 70.5 | > 100
5 | CO[C@H]1O[C@@]2(C)CC(=O)[C@H]3C[C@]2(O[C@@H]2O[C@H](COC(=O)c4ccccc4)[C@@H](O)[C@H](O)[C@H]2O)[C@]13COC(=O)c1ccc(O)cc1 [PAEONIDANIN C] | 106 | 111 | 94.3 | 80.3 | > 100
6 | CC12CC3OC4O[C@H](CO)[C@@H](O)[C@H](O)[C@H]4OC34CC1C4(COC(=O)c1ccccc1)C(=O)O2 (stereo not given in full) [LACTIFLORIN] | 89.4 | 91.5 | 86.7 | 81.2 | > 100
7 | CO[C@H]1O[C@@]2(C)CC(=O)[C@H]3C[C@]2(O[C@@H]2O[C@H](COC(=O)c4ccccc4)[C@@H](O)[C@H](O)[C@H]2O)[C@]13COC(=O)c1ccccc1 [PAEONIDANIN A] | 86.6 | 74.9 | 59.1 | 57.2 | 36.2
8 | COc1cc(C(=O)OC[C@H]2O[C@@H](O[C@@]34C[C@H]5[C@@]3(CO)[C@H]3O[C@]5(O)C[C@]4(C)O3)[C@H](O)[C@@H](O)[C@@H]2O)ccc1O [MUDANPIOSIDE E] | 86.2 | 83.9 | 80.9 | 67.4 | > 100
9 | CO[C@H]1O[C@@]2(C)CC(=O)[C@H]3C[C@]2(O)[C@]13COC(=O)c1ccccc1 [PAEONIDANGENIN] | 89.9 | 91.5 | 85 | 66.2 | > 100
10 | C[C@@]12C[C@@]3(O)O[C@@H](O1)[C@]1(COC(=O)c4ccccc4)[C@H]3C[C@@]12O[C@@H]1O[C@H](CO)[C@@H](O)[C@H](O)[C@H]1O [PAEONIFLORIN] | 100 | 87.8 | 79.5 | 66.7 | 27.8
11 | C[C@@H]1CC(=O)[C@H]2C[C@]1(O)[C@]2(C)COC(=O)c1cc(O)c(O)c(O)c1 [PAEONIFLORONE] | 91.3 | 83.8 | 67.5 | 64.1 | 61.8
